Data taken from ChEMBL document CHEMBL6109152, “Harnessing the SPOP E3 Ubiquitin Ligase via a Bridged Proteolysis Targeting Chimera (PROTAC) Strategy for Targeted Protein Degradation” (J Med Chem, 2025).
Activity calls are given as the source filed them. The calls are words filed in the database; no cut-off is given here.

Columns and labels:
[1] = target: T1, Bromodomain-containing protein 4 (Homo sapiens, UniProt O60885); test: Inhibition of BRD4 in human HT-29 cells assessed as decrease in c-MYC protein level by measuring fold change at 0.156 uM incubated for 24 hrs by Western blot analysis (reference value: 1.00); type: cell-based
[2] = target: T1, Bromodomain-containing protein 4; test: Inhibition of BRD4 in human HT-29 cells assessed as decrease in c-MYC protein level by measuring fold change at 10 uM incubated for 24 hrs by Western blot analysis (reference value: 1.00); type: cell-based
[3] = target: T2, Speckle-type POZ protein-Bromodomain-containing protein 2 (Homo sapiens) (UniProt P25440+O43791); test: PROTAC activity at SPOP/BRD2 in human HT-29 cells assessed as induction of BRD2 degradation by measuring fold change at 0.156 uM incubated for 24 hrs by Western blot analysis (reference value: 1.00); type: cell-based
[4] = target: T3, Speckle-type POZ protein-Bromodomain-containing protein 3 (Homo sapiens) (UniProt Q15059+O43791); test: PROTAC activity at SPOP/BRD3 in human HT-29 cells assessed as induction of BRD3 degradation by measuring fold change at 10 uM incubated for 24 hrs by Western blot analysis (reference value: 1.00); type: cell-based
HT-29 [5] = test: Effect on BRD4 long isoform mRNA level in human HT-29 cells at 1 to 10 uM incubated for 24 hrs by RT-qPCR analysis; type: functional, cell-based; conditions: dose 1-10 µM
HT-29 [6] = test: Effect on BRD4 short isoform mRNA level in human HT-29 cells at 1 to 10 uM incubated for 24 hrs by RT-qPCR analysis; type: functional, cell-based; conditions: dose 1-10 µM
[7] = target: T4, Speckle-type POZ protein-Bromodomain-containing protein 4 (Homo sapiens, UniProt O60885+O43791); test: PROTAC activity at SPOP/BRD4-L in human HT-29 cells assessed as induction of BRD4 long isoform degradation at 0.5 to 5 uM incubated for 24 hrs by Western blotting analysis; type: cell-based; conditions: dose 0.5-5 µM
PNT2 = test: Cytotoxicity against human PNT2 assessed as reduction in cell growth at 0.021 to 10 uM incubated for 72 hrs by WST-8 reagent based assay; type: toxicity; conditions: pnt2, 72 h, dose 0.021-10 µM
HT-29 [8] = test: Downregulation of c-MYC mRNA level in human HT-29 cells at 5 to 10 uM incubated for 24 hrs by RT-qPCR analysis; type: functional, cell-based; conditions: dose 5-10 µM
[9] = target: T4, Speckle-type POZ protein-Bromodomain-containing protein 4; test: PROTAC activity at SPOP/BRD4-S in human HT-29 cells assessed as induction of BRD4 short isoform degradation by measuring fold change at 0.156 uM incubated for 24 hrs by Western blotting analysis (reference value: 1.00); type: cell-based
[10] = target: T3, Speckle-type POZ protein-Bromodomain-containing protein 3 (Homo sapiens); test: PROTAC activity at SPOP/BRD3 in human HT-29 cells assessed as induction of BRD3 degradation by measuring fold change at 5 uM incubated for 24 hrs by Western blot analysis (reference value: 1.00); type: cell-based
[11] = target: T4, Speckle-type POZ protein-Bromodomain-containing protein 4; test: PROTAC activity at SPOP/BRD4-S in human MDA-MB-231 cells assessed as induction of BRD4 short isoform degradation at 0.1 to 5 uM incubated for 24 hrs by Western blotting analysis; type: cell-based; conditions: dose 0.1-5 µM
[12] = target: T1, Bromodomain-containing protein 4; test: Binding affinity to BRD4-BD2 domain (unknown origin) assessed as assessed as dissociation constant by ITC analysis
[13] = target: T3, Speckle-type POZ protein-Bromodomain-containing protein 3 (Homo sapiens); test: PROTAC activity at SPOP/BRD3 in human HT-29 cells assessed as induction of BRD3 degradation by measuring fold change at 0.625 uM incubated for 24 hrs by Western blot analysis (reference value: 1.00); type: cell-based
[14] = target: T4, Speckle-type POZ protein-Bromodomain-containing protein 4; test: PROTAC activity at SPOP/BRD4-S in human HT-29 cells assessed as induction of BRD4 short isoform degradation by measuring fold change at 0.625 uM incubated for 24 hrs by Western blotting analysis (reference value: 1.00); type: cell-based
[15] = target: T2, Speckle-type POZ protein-Bromodomain-containing protein 2 (Homo sapiens); test: PROTAC activity at SPOP/BRD2 in human HT-29 cells assessed as induction of BRD2 degradation by measuring fold change at 0.625 uM incubated for 24 hrs by Western blot analysis (reference value: 1.00); type: cell-based
[16] = target: T3, Speckle-type POZ protein-Bromodomain-containing protein 3 (Homo sapiens); test: PROTAC activity at SPOP/BRD3 in human HT-29 cells assessed as induction of BRD3 degradation by measuring fold change at 0.313 uM incubated for 24 hrs by Western blot analysis (reference value: 1.00); type: cell-based
[17] = target: T1, Bromodomain-containing protein 4; test: Inhibition of BRD4 in human HT-29 cells assessed as decrease in c-MYC protein level at 5 uM measured after 16 hrs by Western blot analysis relative to control; type: cell-based
[18] = target: T3, Speckle-type POZ protein-Bromodomain-containing protein 3 (Homo sapiens); test: PROTAC activity at SPOP/BRD3 in human MDA-MB-231 cells assessed as induction of BRD3 degradation at 0.1 to 5 uM incubated for 24 hrs by Western blot analysis; type: cell-based; conditions: dose 0.1-5 µM
[19] = target: T2, Speckle-type POZ protein-Bromodomain-containing protein 2 (Homo sapiens); test: PROTAC activity at SPOP/BRD2 in human HT-29 cells assessed as induction of BRD2 degradation by measuring fold change at 5 uM incubated for 24 hrs by Western blot analysis (reference value: 1.00); type: cell-based
HT-29 [20] = test: Effect on BRD3 mRNA level in human HT-29 cells at 1 to 10 uM incubated for 24 hrs by RT-qPCR analysis; type: functional, cell-based; conditions: dose 1-10 µM
[21] = target: T4, Speckle-type POZ protein-Bromodomain-containing protein 4; test: PROTAC activity at SPOP/BRD4-S in human HT-29 cells assessed as induction of BRD4 short isoform degradation at 5 uM preincubated with MS1262 for 2 hrs followed by compound addition and measured after 24 hrs by Western blot analysis; type: cell-based
[22] = target: T4, Speckle-type POZ protein-Bromodomain-containing protein 4; test: PROTAC activity at SPOP/BRD4-S in human HT-29 cells assessed as induction of BRD4 short isoform degradation at 5 uM by Western blotting analysis; type: cell-based; conditions: time 2-72 hrs
[23] = target: T4, Speckle-type POZ protein-Bromodomain-containing protein 4; test: PROTAC activity at SPOP/BRD4-L in human HT-29 cells assessed as induction of BRD4 long isoform degradation by measuring fold change at 10 uM incubated for 24 hrs by Western blotting analysis (reference value: 1.00); type: cell-based
[24] = target: T4, Speckle-type POZ protein-Bromodomain-containing protein 4; test: PROTAC activity at SPOP/BRD4-L in human HT-29 cells assessed as induction of BRD4 long isoform degradation by measuring fold change at 0.313 uM incubated for 24 hrs by Western blotting analysis (reference value: 1.00); type: cell-based
[25] = target: T4, Speckle-type POZ protein-Bromodomain-containing protein 4; test: PROTAC activity at SPOP/BRD4-L in human HT-29 cells assessed as induction of BRD4 long isoform degradation by measuring fold change at 1.25 uM incubated for 24 hrs by Western blotting analysis (reference value: 1.00); type: cell-based
[26] = target: T4, Speckle-type POZ protein-Bromodomain-containing protein 4; test: PROTAC activity at SPOP/BRD4-L in human HT-29 cells assessed as induction of BRD4 long isoform degradation by measuring fold change at 5 uM incubated for 24 hrs by Western blotting analysis (reference value: 1.00); type: cell-based
[27] = target: T4, Speckle-type POZ protein-Bromodomain-containing protein 4; test: PROTAC activity at SPOP/BRD4-S in human HT-29 cells assessed as induction of BRD4 short isoform degradation by measuring fold change at 0.313 uM incubated for 24 hrs by Western blotting analysis (reference value: 1.00); type: cell-based

T4 sequence (O43791 whole entry, looked up, other chains not shown, canonical isoform): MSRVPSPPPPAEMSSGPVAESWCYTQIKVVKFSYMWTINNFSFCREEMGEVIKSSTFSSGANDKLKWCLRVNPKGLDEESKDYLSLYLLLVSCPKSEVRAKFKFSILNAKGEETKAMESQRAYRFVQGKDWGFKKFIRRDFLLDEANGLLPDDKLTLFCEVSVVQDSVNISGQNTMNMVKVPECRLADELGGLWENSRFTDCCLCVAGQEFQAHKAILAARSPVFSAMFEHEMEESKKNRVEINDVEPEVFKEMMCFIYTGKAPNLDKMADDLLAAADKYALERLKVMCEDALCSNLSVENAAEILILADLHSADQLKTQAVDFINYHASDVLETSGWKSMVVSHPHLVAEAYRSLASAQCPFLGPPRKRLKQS
T3 sequence (O43791 whole entry, looked up, canonical isoform): as the sequence (O43791 whole entry, looked up, other chains not shown, canonical isoform) above
T3 sequence (Q15059 whole entry, looked up, canonical isoform): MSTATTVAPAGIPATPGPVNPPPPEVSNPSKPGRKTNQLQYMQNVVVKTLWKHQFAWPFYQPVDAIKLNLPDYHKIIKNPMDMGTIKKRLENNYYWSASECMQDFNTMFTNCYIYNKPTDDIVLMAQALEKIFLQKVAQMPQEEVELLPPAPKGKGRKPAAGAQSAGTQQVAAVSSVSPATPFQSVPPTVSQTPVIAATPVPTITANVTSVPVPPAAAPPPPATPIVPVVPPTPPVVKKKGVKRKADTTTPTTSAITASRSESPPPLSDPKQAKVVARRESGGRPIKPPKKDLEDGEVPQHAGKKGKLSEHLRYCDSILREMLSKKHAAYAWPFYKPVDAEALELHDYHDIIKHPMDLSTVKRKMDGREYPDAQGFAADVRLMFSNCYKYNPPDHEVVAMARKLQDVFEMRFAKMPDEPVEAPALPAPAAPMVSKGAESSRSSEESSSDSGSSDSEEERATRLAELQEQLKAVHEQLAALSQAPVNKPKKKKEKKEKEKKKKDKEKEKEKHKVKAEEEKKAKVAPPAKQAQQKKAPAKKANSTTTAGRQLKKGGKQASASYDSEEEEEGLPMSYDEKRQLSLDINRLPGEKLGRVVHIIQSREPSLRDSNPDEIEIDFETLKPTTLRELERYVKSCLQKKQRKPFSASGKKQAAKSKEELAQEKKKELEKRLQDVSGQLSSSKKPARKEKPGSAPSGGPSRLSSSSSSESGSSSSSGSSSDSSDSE
T2 sequence (O43791 whole entry, looked up): as the sequence (O43791 whole entry, looked up, other chains not shown, canonical isoform) above
T2 sequence (P25440 whole entry, looked up): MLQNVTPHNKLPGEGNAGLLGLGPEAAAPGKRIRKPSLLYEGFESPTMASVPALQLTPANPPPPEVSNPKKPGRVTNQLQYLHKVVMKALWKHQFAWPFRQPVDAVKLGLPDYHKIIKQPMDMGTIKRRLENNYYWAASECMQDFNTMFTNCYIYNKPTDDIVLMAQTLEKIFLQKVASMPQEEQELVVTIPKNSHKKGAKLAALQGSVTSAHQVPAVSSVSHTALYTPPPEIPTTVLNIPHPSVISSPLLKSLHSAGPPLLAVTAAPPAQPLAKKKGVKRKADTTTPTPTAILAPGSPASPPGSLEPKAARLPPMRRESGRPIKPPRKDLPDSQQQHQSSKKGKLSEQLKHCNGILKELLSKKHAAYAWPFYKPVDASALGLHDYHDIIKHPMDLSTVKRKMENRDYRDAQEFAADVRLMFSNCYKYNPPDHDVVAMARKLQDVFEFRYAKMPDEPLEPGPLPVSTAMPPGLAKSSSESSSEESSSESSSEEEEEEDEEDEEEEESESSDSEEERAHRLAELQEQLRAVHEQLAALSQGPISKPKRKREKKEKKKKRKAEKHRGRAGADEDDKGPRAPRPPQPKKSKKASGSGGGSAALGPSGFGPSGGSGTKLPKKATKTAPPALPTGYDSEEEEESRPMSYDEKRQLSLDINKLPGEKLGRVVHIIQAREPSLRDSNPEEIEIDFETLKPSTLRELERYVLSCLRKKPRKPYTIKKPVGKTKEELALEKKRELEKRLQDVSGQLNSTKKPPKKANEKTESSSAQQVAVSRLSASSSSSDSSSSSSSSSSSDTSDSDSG

COc1cc2c(NC3CCN(CCCC(=O)NCCCCCCCCCCNC(=O)C[C@@H]4N=C(c5ccc(Cl)cc5)c5c(sc(C)c5C)-n5c(C)nnc54)CC3)cc(N3CCOCC3)nc2cc1OCCCN1CCCC1
fold change (FC) [1]: 1
fold change (FC) [2]: 0.03
fold change (FC) [3]: 1.3
fold change (FC) [4]: 0.5
Activity (HT-29 [5]): inactive
Activity (HT-29 [6]): inactive
Activity [7]: inactive
Activity (PNT2): Non-toxic
Activity (HT-29 [8]): Active
fold change (FC) [9]: 1
fold change (FC) [10]: 0.6
Activity [11]: Active
Kd [12]: 200 nM
fold change (FC) [13]: 0.9
fold change (FC) [14]: 0.9
fold change (FC) [15]: 1.1
fold change (FC) [16]: 0.9
inhibition [17]: 100%
Activity [18]: Active
fold change (FC) [19]: 0.9
Activity (HT-29 [20]): inactive
Activity [21]: inactive
Activity [22]: Time-dependent-effect
fold change (FC) [23]: 0.6
fold change (FC) [24]: 1.3
fold change (FC) [25]: 1.2
fold change (FC) [26]: 0.7
fold change (FC) [27]: 1.2
